# Experimental data as given in US20050165224A1, “Inhibition of penicillin resistance in s. pneumoniae” (priority 2000, published 2005).
# Columns and labels:
# Assay in all cases: Penicillin MIC (E-test / population analysis)
# Format in all cases: cell-based
# [1] = tested on: S. pneumoniae 8249, intact murMN operon; settings: Streptococcus pneumoniae, strain 8249 (serotype 19A, South African)
# Protocol: (§1) Transformation, population analysis profiles and determination of penicillin resistance level S. pneumoniae R36A and Pen6 were transformed essentially according to published procedures (8). To induce competence, synthetic CSPα was added to the medium at a concentration of 250 ng/ml. The competent cells were then incubated for 30 min at 30° C. in the presence of plasmidic DNA followed by the addition of 2 ml of C+Y medium and a 2 h incubation at 37° C. Transformants were selected on blood agar plates (TSA+3% (v/v) sheep blood) containing 1 μg/ml erythromycin. Population analysis profiles (PAPs) were determined by plating serial dilutions of early stationary phase cultures on plates of TSA containing 5% (v/v) of sheep blood (Micropure Medical Inc, White Bear Lake, Minn.), and different concentrations of Penicillin G (Sigma) (0, 0.01, 0.03, 0.06, 0.125, 0.25, 0.5, 1, 2, 4, 8, 16 ([…]). The PAPs were done with and without the presence of […] erythromycin in the medium. Plates were incubated at 37° C. in a 5% CO2-in-air atmosphere for 24 h and the number of bacteria capable of forming colonies in the presence of various penicillin concentrations was plotted against the concentration of penicillin in the agar medium. Penicillin resistance levels (minimal inhibitory concentration, MIC) were determined by the E-test following the manufacturers guidelines (AB Bidosk, Sweden).
# [2] = tested on: S. pneumoniae Ala1, intact murMN operon; settings: Streptococcus pneumoniae, strain Ala1 (serotype 6B, Alaskan)
# Protocol: as §1
# [3] = tested on: S. pneumoniae Clev2, intact murMN operon; settings: Streptococcus pneumoniae, read-out: Penicillin MIC
# Protocol: as §1
# [4] = tested on: S. pneumoniae Hun663, intact murMN operon; settings: Streptococcus pneumoniae, read-out: Penicillin MIC
# Protocol: as §1
# [5] = tested on: S. pneumoniae Pen6, intact murMN operon; settings: Streptococcus pneumoniae, read-out: Penicillin MIC
# Protocol: as §1
# [6] = tested on: S. pneumoniae R36A, intact murMN operon; settings: Streptococcus pneumoniae, strain R36A (laboratory strain)
# Protocol: as §1
# [7] = tested on: S. pneumoniae Sp2150, intact murMN operon; settings: Streptococcus pneumoniae, strain Sp2150 (serotype 9/14, French/Spanish)
# Protocol: as §1
# [8] = tested on: S. pneumoniae Pen6, disrupted murMN operon; settings: Streptococcus pneumoniae, strain Pen6 (transformant)
# Protocol: (§2) Inactivation of the murMN operon. For gene disruption experiments, internal fragments of murM, from the bacterial strains R36A and Pen6, were amplified by PCR and cloned into pJDC9 (9). For amplification of the internal fragment of murM from R36A the following primers were used 5′-[…]-3′ (SEQ ID NO: 26) and 5′-[…]-3′ (SEQ ID NO: 27) giving origin to the plasmid pZOO5. Amplification of the internal fragment of murM from Pen6 was carried out using the primers 5′-[…]-3′ (SEQ ID NO:28) and 5′-[…]-3′ (SEQ ID NO: 29) giving origin to the plasmid pZOO6. For inactivation of the murMN operon in R36A and in Pen6, competent cells of R36A and Pen6 were transformed respectively with plasmids pZOO5 and pZOO6 (FIG. 1B).
# (§3) Transformation, population analysis profiles and determination of penicillin resistance level S. pneumoniae R36A and Pen6 were transformed essentially according to published procedures (8). To induce competence, synthetic CSPα was added to the medium at a concentration of 250 ng/ml. The competent cells were then incubated for 30 min at 30° C. in the presence of plasmidic DNA followed by the addition of 2 ml of C+Y medium and a 2 h incubation at 37° C. […] Penicillin resistance levels (minimal inhibitory concentration, MIC) were determined by the E-test following the manufacturers guidelines (AB Bidosk, Sweden).
# [9] = tested on: S. pneumoniae R36A, disrupted murMN operon; settings: Streptococcus pneumoniae, strain R36A (laboratory strain)
# Protocol: as §2, §3
# [10] = tested on: S. pneumoniae Sp2150, disrupted murMN operon; settings: Streptococcus pneumoniae, strain Sp2150 (serotype 9/14, French/Spanish)
# [11] = tested on: S. pneumoniae Clev2, disrupted murMN operon; settings: Streptococcus pneumoniae, strain Clev2 (serotype 23F, Spanish/USA)
# [12] = tested on: S. pneumoniae Ala1, disrupted murMN operon; settings: Streptococcus pneumoniae, strain Ala1 (serotype 6B, Alaskan)
# [13] = tested on: S. pneumoniae Hun663Tr4Tr5, disrupted murMN operon; settings: Streptococcus pneumoniae, strain Hun663Tr4Tr5 (transformant)
compound,measurement,setting,value
"CC1(C)S[C@@H]2[C@H](NC(=O)Cc3ccccc3)C(=O)N2[C@H]1C(=O)O [Penicillin, Penicillin G]",MIC,[1],6 µg/mL
same,MIC,[2],0.12 µg/mL
same,MIC,[3],1.6 µg/mL
same,MIC,[4],1.6 µg/mL
same,MIC,[5],6 µg/mL
same,MIC,[6],0.023 µg/mL
same,MIC,[7],1 µg/mL
same,MIC,[8],0.032 µg/mL
same,MIC,[9],0.023 µg/mL
same,MIC,[10],0.032 µg/mL
same,MIC,[11],0.016 µg/mL
same,MIC,[12],0.064 µg/mL
same,MIC,[13],0.032 µg/mL
